ChEMBL document CHEMBL3508140 (2016)

What was measured:
[1] = Recovery of 7-deoxy doxorubicin-aglycone following intraperitoneal epirubicin at 4 mg.Kg-1 dose in mouse; format: ADME, organism-based, CD-1, Plasma; conditions: in vivo, ip
[2] = Recovery of 7-deoxy doxorubicin-aglycone following intravenous epirubicin at 4 mg.Kg-1 dose in rat; format: ADME, organism-based, SD, Plasma; conditions: in vivo
[3] = Recovery of 7-deoxy doxorubicin-aglycone following intraperitoneal epirubicin at 4 mg.Kg-1 dose in hamster; format: ADME, organism-based, Cricetulus griseus, Plasma; conditions: chinese hamster, in vivo, ip
[4] = Recovery of 7-deoxy doxorubicin-aglycone following intravenous epirubicin at 4 mg.Kg-1 dose in rabbit; format: ADME, organism-based, Oryctolagus cuniculus, New Zealand White, Plasma; conditions: in vivo
[5] = Recovery of 7-deoxy doxorubicin-aglycone following intravenous epirubicin at 1.5 mg.Kg-1 dose in man; format: ADME, organism-based, Plasma; conditions: human, in vivo
[6] = Detection of 7-deoxy epirubicin-aglycone in plasma following single intravenous epirubicin at 10 mg.Kg-1 dose in female mouse bearing colon tumor; format: ADME, organism-based, BALB/c; conditions: in vivo
[7] = Detection of 7-deoxy doxorubicin-aglycone in plasma following single intravenous doxorubicin at 10 mg.Kg-1 dose in female mouse bearing colon tumor; format: ADME, organism-based, BALB/c; parameters: dose 10 mg.Kg-1, dosed compound id 2.46809e+06, dosed compound name Doxorubicin, gender F, regimen Single, route intravenous, sampling time 48 h; conditions: in vivo
[8] = Detection of 7-deoxy epirubicin-aglycone in heart following single intravenous epirubicin at 10 mg.Kg-1 dose in female mouse bearing colon tumor; format: ADME, organism-based, BALB/c; conditions: in vivo
[9] = Detection of 7-deoxy doxorubicin-aglycone in heart following single intravenous doxorubicin at 10 mg.Kg-1 dose in female mouse bearing colon tumor; format: ADME, organism-based, BALB/c; parameters: dose 10 mg.Kg-1, dosed compound id 2.46809e+06, dosed compound name Doxorubicin, gender F, regimen Single, route intravenous, sampling time 48 h; conditions: in vivo
[10] = Detection of 7-deoxy epirubicin-aglycone in tumor following single intravenous epirubicin at 10 mg.Kg-1 dose in female mouse bearing colon tumor; format: ADME, organism-based, BALB/c, Neoplasm; conditions: in vivo
[11] = Detection of 7-deoxy doxorubicin-aglycone in tumor following single intravenous doxorubicin at 10 mg.Kg-1 dose in female mouse bearing colon tumor; format: ADME, organism-based, BALB/c, Neoplasm; parameters: dose 10 mg.Kg-1, dosed compound id 2.46809e+06, dosed compound name Doxorubicin, gender F, regimen Single, route intravenous, sampling time 48 h; conditions: in vivo
[12] = AUC values (0-48 h) of 7-deoxydoxorubicin aglycone in plasma following single intravenous doxorubicin at 10 mg.Kg-1 dose in female mouse bearing colon tumor; format: ADME, organism-based, BALB/c; parameters: time < 48 hr, dose 10 mg.Kg-1, dosed compound id 2.46809e+06, dosed compound name Doxorubicin, gender F, regimen Single, route intravenous, sampling time 48 h; conditions: in vivo
[13] = AUC values (0-48 h) of 7-deoxydoxorubicin aglycone in heart following single intravenous doxorubicin at 10 mg.Kg-1 dose in female mouse bearing colon tumor; format: ADME, organism-based, BALB/c; parameters: time < 48 hr, dose 10 mg.Kg-1, dosed compound id 2.46809e+06, dosed compound name Doxorubicin, gender F, regimen Single, route intravenous, sampling time 48 h; conditions: in vivo
[14] = AUC values (0-48 h) of 7-deoxydoxorubicin aglycone in tumor following single intravenous doxorubicin at 10 mg.Kg-1 dose in female mouse bearing colon tumor; format: ADME, organism-based, BALB/c, Neoplasm; parameters: time < 48 hr, dose 10 mg.Kg-1, dosed compound id 2.46809e+06, dosed compound name Doxorubicin, gender F, regimen Single, route intravenous, sampling time 48 h; conditions: in vivo
[15] = AUC values (0-48 h) of 7-deoxydoxorubicin aglycone in plasma following single intravenous epirubicin at 10 mg.Kg-1 dose in female mouse bearing colon tumor; format: ADME, organism-based, BALB/c; conditions: in vivo
[16] = AUC values (0-48 h) of 7-deoxydoxorubicin aglycone in heart following single intravenous epirubicin at 10 mg.Kg-1 dose in female mouse bearing colon tumor; format: ADME, organism-based, BALB/c; conditions: in vivo
[17] = AUC values (0-48 h) of 7-deoxydoxorubicin aglycone in tumor following single intravenous epirubicin at 10 mg.Kg-1 dose in female mouse bearing colon tumor; format: ADME, organism-based, BALB/c, Neoplasm; conditions: in vivo
[18] = Terminal half-life of doxorubicinol following intravenous doxorubicinol at 1.27 mg.Kg-1 dose in dog; format: ADME, organism-based, Canis lupus familiaris, Beagle, Plasma; parameters: dose 1.27 mg.Kg-1, dosed compound id 2.4681e+06, dosed compound name Doxorubicinol, route intravenous; conditions: in vivo
[19] = Recovery of doxorubicinol following intraperitoneal epirubicin at 4 mg.Kg-1 dose in mouse; format: ADME, organism-based, CD-1, Plasma; conditions: in vivo, ip
[20] = Recovery of doxorubicinol following intravenous epirubicin at 4 mg.Kg-1 dose in rat; format: ADME, organism-based, SD, Plasma; conditions: in vivo
[21] = Recovery of doxorubicinol following intraperitoneal epirubicin at 4 mg.Kg-1 dose in hamster; format: ADME, organism-based, Cricetulus griseus, Plasma; conditions: chinese hamster, in vivo, ip
[22] = Recovery of doxorubicinol following intravenous epirubicin at 4 mg.Kg-1 dose in rabbit; format: ADME, organism-based, Oryctolagus cuniculus, New Zealand White, Plasma; conditions: in vivo
[23] = Recovery of doxorubicinol following intravenous epirubicin at 1.5 mg.Kg-1 dose in man; format: ADME, organism-based, Plasma; conditions: human, in vivo
[24] = Detection of doxorubicinol in plasma following single intravenous doxorubicin at 10 mg.Kg-1 dose in female mouse bearing colon tumor; format: ADME, organism-based, BALB/c; parameters: dose 10 mg.Kg-1, dosed compound id 2.46809e+06, dosed compound name Doxorubicin, gender F, regimen Single, route intravenous, sampling time 48 h; conditions: in vivo
[25] = Detection of doxorubicinol in heart following single intravenous doxorubicin at 10 mg.Kg-1 dose in female mouse bearing colon tumor; format: ADME, organism-based, BALB/c; parameters: dose 10 mg.Kg-1, dosed compound id 2.46809e+06, dosed compound name Doxorubicin, gender F, regimen Single, route intravenous, sampling time 48 h; conditions: in vivo
[26] = Detection of doxorubicinol in tumor following single intravenous doxorubicin at 10 mg.Kg-1 dose in female mouse bearing colon tumor; format: ADME, organism-based, BALB/c, Neoplasm; parameters: dose 10 mg.Kg-1, dosed compound id 2.46809e+06, dosed compound name Doxorubicin, gender F, regimen Single, route intravenous, sampling time 48 h; conditions: in vivo
[27] = AUC values (0-48 h) of doxorubicinol in plasma following single intravenous doxorubicin at 10 mg.Kg-1 dose in female mouse bearing colon tumor; format: ADME, organism-based, BALB/c; parameters: time < 48 hr, dose 10 mg.Kg-1, dosed compound id 2.46809e+06, dosed compound name Doxorubicin, gender F, regimen Single, route intravenous, sampling time 48 h; conditions: in vivo
[28] = AUC values (0-48 h) of doxorubicinol in heart following single intravenous doxorubicin at 10 mg.Kg-1 dose in female mouse bearing colon tumor; format: ADME, organism-based, BALB/c; parameters: time < 48 hr, dose 10 mg.Kg-1, dosed compound id 2.46809e+06, dosed compound name Doxorubicin, gender F, regimen Single, route intravenous, sampling time 48 h; conditions: in vivo
[29] = AUC values (0-48 h) of doxorubicinol in tumor following single intravenous doxorubicin at 10 mg.Kg-1 dose in female mouse bearing colon tumor; format: ADME, organism-based, BALB/c, Neoplasm; parameters: time < 48 hr, dose 10 mg.Kg-1, dosed compound id 2.46809e+06, dosed compound name Doxorubicin, gender F, regimen Single, route intravenous, sampling time 48 h; conditions: in vivo
[30] = (§1) Urinary elimination of adriamycinol following intravenous bolus adriamycin at 10 mg.Kg-1 dose in rat; format: ADME, organism-based, SD, Urine; parameters: dose 10 mg.Kg-1, dosed compound id 2.46809e+06, dosed compound name Doxorubicin, route intravenous, sampling time 0-6 h; conditions: in vivo
[31] = as §1; format: ADME, organism-based, SD, Urine; parameters: dose 10 mg.Kg-1, dosed compound id 2.46809e+06, dosed compound name Doxorubicin, route intravenous, sampling time 0-24 h; conditions: in vivo
[32] = as §1; format: ADME, organism-based, SD, Urine; parameters: dose 10 mg.Kg-1, dosed compound id 2.46809e+06, dosed compound name Doxorubicin, route intravenous, sampling time 0-60 h; conditions: in vivo

With COc1cccc2c1C(=O)c1c(O)c3c(c(O)c1C2=O)C[C@@](O)(C(=O)CO)CC3 the Compound recovery [1] was 0 10^-9M, the Compound recovery [2] was 0 10^-9M and the Compound recovery [3] was 1.3 10^-9M. The Compound recovery [4] was 0 10^-9M, the Compound recovery [5] was 14 10^-9M and the Compound recovery [6] was “OUTCOME = Observed”. For the same compound, the Compound recovery [7] was “OUTCOME = Observed”, the Compound recovery [8] was “OUTCOME = Observed” and the Compound recovery [9] was “OUTCOME = Observed”. For the same compound, the Compound recovery [10] was “OUTCOME = Observed”, the Compound recovery [11] was “OUTCOME = Observed” and the AUC [12] was 4.1 nmol·min/mL. For the same compound, the AUC [13] was 152 nmol·min/g, the AUC [14] was 135 nmol·min/g and the AUC [15] was 1.6 nmol·min/mL. It also gave an AUC [16] of 49 nmol·min/g and an AUC [17] of 11 nmol·min/g.
With COc1cccc2c1C(=O)c1c(O)c3c(c(O)c1C2=O)C[C@@](O)(C(O)CO)C[C@@H]3O[C@H]1C[C@H](N)[C@H](O)[C@H](C)O1 (some centres not stated) the t1/2 [18] was “VALUE = Shorter than doxorubicin”, the Compound recovery [19] was 0 10^-9M and the Compound recovery [20] was 0.6 10^-9M. For the same compound, the Compound recovery [21] was 0.1 10^-9M, the Compound recovery [22] was 0.3 10^-9M and the Compound recovery [23] was 1 10^-9M. For the same compound, the Compound recovery [24] was “OUTCOME = Observed”, the Compound recovery [25] was “OUTCOME = Observed” and the Compound recovery [26] was “OUTCOME = Not detected/not observed”. It also gave an AUC [27] of 1.7 nmol·min/mL, an AUC [28] of 228 nmol·min/g and an AUC [29] of 0 nmol·min/g. For the same compound, the Compound recovery [30] was 0.22%, the Compound recovery [31] was 0.26% and the Compound recovery [32] was 0.3%.
